Experimental data from patent US8901305B2, “Aryl lactam kinase inhibitors” (Bristol-Myers Squibb Company, priority 2012, dated 2014).

Columns and labels:
[1] = target: T1, GST-Xa-hAAK1 (Homo sapiens, UniProt Q2M2I8); assay: AAK1 kinase assay; assay type: biochemical; settings: ATP 22 μM, 3 hours at room temperature
T1 construct: made in house
Protocol: The assays were performed in U-bottom 384-well plates. […] The reactions were initiated by the combination of bacterially expressed, GST-Xa-hAAK1 with substrates and test compounds. The reactions were incubated at room temperature for 3 hours and terminated by adding 60 μl of 35 mM EDTA buffer to each sample. The reactions were analyzed on the Caliper LabChip 3000 (Caliper, Hopkinton, Mass.) by electrophoretic separation of the fluorescent substrate and phosphorylated product. […] Compounds were dissolved at 10 mM in dimethylsulfoxide (DMSO) and evaluated at eleven concentrations. IC50 values were derived by non-linear regression analysis.

[2] = target: T2, AAK1 (full length human) with AP2M1 in HEK293F cells (Homo sapiens, UniProt Q2M2I8); assay: HEK281 cell-based assay (phospho-mu2 Western blot in transfected HEK293F cells); settings: 3 hours, inhibition of mu2 phosphorylation
T2 construct: expressed in transfected cells; host or cells: HEK293F
Protocol: HEK293F cells were cultured in media containing DMEM (Gibco, cat. #11965), 10% FBS (SAFC Biosciences, cat. #12103C), 1×GPS (glutamine, penicillin and streptomycin). On day one, cells were plated on a 10 cm dish so that they are ˜80% confluent at time of transfection. Roughly 12 million cells were in a 10 cm dish at time of transfection. On day two, each dish was transfected with 48 ug DNA and 144 ul Lipofectamine 2000 (Invitrogen, cat. #11668-019). The DNA was comprised of a mixture (per 10 cm dish) containing 3 ug AAK1/HA/pIRES (full length human, NCBI accession no. NP_055726.2), 45 μg Flag/AP2MI/pcDNA (full length human), and 1.5 ml OPTI-MEM. The Lipofectamine 2000 is made up of a mixture (per 10 cm dish) containing 144 μl Lipofectamine 2000 and 1.5 ml OPTI-MEM. Each mixture was transferred to individual 15 ml tubes and incubated at RT for 5 minutes, and then the two mixes were combined and incubated at RT for 20 minutes. Growth media was then aspirated from each 10 cm plate and replaced with 10 ml of DMEM+10% FBS (no GPS). Finally, 3 ml DNA/Lipofectamine mix was added to each 10 cm dish and mix gently followed by incubate of plate overnight at 37° C. and 5% CO2.
On day three, compounds were diluted in 100% DMSO at 1000× final concentration, followed by 3-fold serial dilutions for a total of 5 concentrations tested. Four compounds were tested per 10 cm dish. One ul of each compound dilution was then pipetted into a deep-well, 96-well plate, followed by addition of 500 μl DMEM+0.5% FBS into each well for a 2× final concentration of each compound. Cells were resuspended in a 10 cm dish by simple pipetting (HEK293 cells come off the plate that easy at this point) and then transferred to a 50 ml conical tube and pelleted by centrifugation at 1000 rpm for 5 min. Cell pellets were then resuspended in 2.75 ml DMEM+0.5% FBS per 10 cm dish and 100 μl of cell suspension transferred into each well of 96-well TC plate. Finally, 100 μl of 2× compound diluted in DMEM+0.5% FBS was then added into wells containing cell suspension for a 1× final concentration. Plates were then incubated at 37° C. and 5% CO2 for 3 hours followed by transferring of cell suspensions from each well into 12-tube PCR strips. The PCR strips were spun in a tip rack at 1000 rpm for 5 minutes to pellet cells and media was then removed by pipetting without disturbing the cell pellet.
To prepare for Western Blot analysis, cell pellets were resuspend in 40 ul 1×LDS-PAGE sample buffer (Invitrogen, cat. # NP0008)+2× Halt phosphatase and protease inhibitor cocktail (Thermo Scientific, cat. #1861284), followed by sonicating each with microtip sonicator set at 5 for 8-10 seconds. Five ul of 10× NuPage Sample Reducing Agent (with […]) was to each sample followed by heat denaturing at 70 C for 10 min on PCR machine. A total of 10 μl per sample was loaded into each lane of a 4-20% Tris-Glycine Criterion 26-well gel (Biorad, cat. #345-0034) for the phospho-mu2 blot and 10 μl per lane in a 4-12% Bis-Tris (+MES buffer) NuPAGE 26-well gel (Invitrogen, cat. # WG1403BX10) for the mu2 blot. For controls, 2 ng of phospho-mu2 or 20 ng mu2/Flag proteins were loaded in the last well of each gel. After SDS-PAGE, samples on each gel were transferred to PVDF membrane using an iBlot and membranes were blocked for one hour in TBST+5% milk, followed by wash 3× for 5-10 min with TBST. Criterion gels were probed with rabbit anti-phospho-mu2 (1:5000; a rabbit polyclonal antibody produced by New England Peptide and affinity purified at Lexicon) in TBST+5% BSA, whereas, NuPAGE gels were probed with mouse anti-Flag (1:500; Sigma, cat. # F1804) in TBST+5% milk, and these primary antibodies were incubated overnight at 4° C. on a rocker. […]

T1 sequence (Q2M2I8 whole entry): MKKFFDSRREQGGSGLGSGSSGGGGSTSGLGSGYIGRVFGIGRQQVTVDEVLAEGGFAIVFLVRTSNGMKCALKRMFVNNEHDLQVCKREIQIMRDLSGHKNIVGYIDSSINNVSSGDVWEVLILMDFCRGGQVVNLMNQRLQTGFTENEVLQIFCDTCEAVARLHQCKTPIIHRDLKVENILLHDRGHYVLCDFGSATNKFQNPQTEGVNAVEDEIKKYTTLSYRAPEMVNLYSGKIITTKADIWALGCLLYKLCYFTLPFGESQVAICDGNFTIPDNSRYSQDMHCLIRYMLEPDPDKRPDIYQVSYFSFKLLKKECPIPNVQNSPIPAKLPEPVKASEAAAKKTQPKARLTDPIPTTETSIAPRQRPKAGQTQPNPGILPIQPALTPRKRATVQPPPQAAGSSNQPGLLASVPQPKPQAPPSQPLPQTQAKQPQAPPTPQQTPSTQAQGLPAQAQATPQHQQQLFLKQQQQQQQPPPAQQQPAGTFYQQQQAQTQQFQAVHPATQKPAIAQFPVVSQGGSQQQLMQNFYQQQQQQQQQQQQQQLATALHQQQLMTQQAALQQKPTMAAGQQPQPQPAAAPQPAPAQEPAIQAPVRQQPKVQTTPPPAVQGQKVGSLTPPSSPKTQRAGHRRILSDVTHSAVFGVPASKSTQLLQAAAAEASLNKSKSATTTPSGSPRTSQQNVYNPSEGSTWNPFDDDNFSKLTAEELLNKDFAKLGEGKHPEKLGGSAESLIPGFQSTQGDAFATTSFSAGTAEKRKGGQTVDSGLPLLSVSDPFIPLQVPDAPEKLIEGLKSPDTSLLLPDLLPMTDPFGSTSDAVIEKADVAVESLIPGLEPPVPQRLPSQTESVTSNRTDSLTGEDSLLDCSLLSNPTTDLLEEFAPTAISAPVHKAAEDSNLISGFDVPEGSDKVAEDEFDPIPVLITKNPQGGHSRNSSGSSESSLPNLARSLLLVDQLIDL
T2 sequence (Q2M2I8 whole entry): as above

Cc1nccc2c1c(=O)[nH]c1c(F)c(OC[C@@H](N)CC(C)C)c(Cl)cc12 [Example 103, (S)-8-(2-amino-4-methylpentyloxy)-9-chloro-7-fluoro-4-methylbenzo[c][2,7]naphthyridin-5(6H)-one]
IC50 ([1]; given as IC50 range): 1 to 10 nM | IC50 ([2]; given as IC50 range): 10 to 100 nM

Cn1c(=O)c2cnccc2c2cc(C#N)c(OCC(N)CCC(F)(F)F)cc21 (stereo not drawn) [Example 56, 8-((2-amino-5,5,5-trifluoropentyl)oxy)-6-methyl-5-oxo-5,6 dihydrobenzo[c][2,7]naphthyridine-9-carbonitrile]
IC50 ([1]; given as IC50 range): 1 to 10 nM | IC50 ([2]; given as IC50 range): 1 to 10 nM

CN[C@H](COc1cc2c(cc1C#N)c1ccnc(C)c1c(=O)n2C)CC(C)C [Example 65, (S)-4,6-dimethyl-8-(4-methyl-2-(methylamino)pentyloxy)-5-oxo-5,6-dihydrobenzo[c][2,7]naphthyridine-9-carbonitrile]
IC50 ([2]; given as IC50 range): 1 to 10 nM

Cc1cc2c3ccnc(C)c3c(=O)n(C)c2cc1OC[C@@H](N)CC(C)C [Example 63, (S)-8-(2-amino-4-methylpentyloxy)-4,6,9-trimethylbenzo[c][2,7]naphthyridin-5(6H)-one]
IC50 ([1]; given as IC50 range): 1 to 10 nM | IC50 ([2]; given as IC50 range): 1 to 10 nM

Cc1nccc2c1c(=O)n(C)c1cc(OC[C@H](N)CC(C)C)ccc21 [Example 19, (R)-8-((2-amino-4-methylpentyl)oxy)-4,6-dimethylbenzo[c][2,7]naphthyridin-5(6H)-one]
IC50 ([1]; given as IC50 range): 10 to 100 nM | IC50 ([2]; given as IC50 range): 10 to 100 nM

CC(C)C[C@H](N)COc1ccc2c3ccncc3c(=O)n(C)c2c1 [Example 2, (S)-8-((2-amino-4-methylpentyl)oxy)-6-methylbenzo[c][2,7]naphthyridin-5(6H)-one]
IC50 ([1]; given as IC50 range): 1 to 10 nM | IC50 [2]: 7 nM

Cc1cc2c3ccnc(C)c3c(=O)n(C)c2cc1OC[C@@H](N)CC1CC1 [Example 25, (S)-8-(2-amino-3-cyclopropylpropoxy)-4,6,9-trimethylbenzo[c][2,7]naphthyridin-5(6H)-one]
IC50 [1]: 0.55 nM | IC50 ([2]; given as IC50 range): 1 to 10 nM

CC(C)CC(C)(N)COc1ccc2c3ccncc3c(=O)n(C)c2c1 (single isomer, unassigned) [Example 59, 8-((2-amino-2,4-dimethylpentyl)oxy)-6-methylbenzo[c][2,7]naphthyridin-5(6H)-one]
IC50 ([1]; given as IC50 range): 1 to 10 nM | IC50 ([2]; given as IC50 range): 10 to 100 nM

Cc1nccc2c1c(=O)n(C)c1cc(OC[C@@H](N)CC(C)C)c(C#N)cc21 [Example 64, (S)-8-(2-amino-4-methylpentyloxy)-4,6-dimethyl-5-oxo-5,6-dihydrobenzo[c][2,7]naphthyridine-9-carbonitrile]
IC50 ([1]; given as IC50 range): < 1 nM | IC50 [2]: 0.6 nM

Cc1nccc2c1c(=O)[nH]c1cc(OC[C@@H](N)CC(C)C)c(Br)cc12 [Example 49, (S)-8-(2-amino-4-methylpentyloxy)-9-bromo-4-methylbenzo[c][2,7]naphthyridin-5(6H)-one]
IC50 [2]: 0.6 nM

CC(C)CC(C)(N)COc1ccc2c3ccncc3c(=O)n(C)c2c1 (single isomer, unassigned) [Example 58, 8-((2-amino-2,4-dimethylpentyl)oxy)-6-methylbenzo[c][2,7]naphthyridin-5(6H)-one]
IC50 [1]: 11 nM | IC50 ([2]; given as IC50 range): 10 to 100 nM

C=CCn1c(=O)c2cnccc2c2ccc(OC[C@@H](N)CC(C)C)cc21 [Example 9, (S)-6-allyl-8-((2-amino-4-methylpentyl)oxy)benzo[c][2,7]naphthyridin-5(6H)-one]
IC50 [1]: 9.7 nM | IC50 [2]: 24 nM

CC(C)C[C@H](N)COc1cc2c(cc1F)c1ccnc(N)c1c(=O)n2C [Example 52, (S)-4-amino-8-(2-amino-4-methylpentyloxy)-9-fluoro-6-methylbenzo[c][2,7]naphthyridin-5(6H)-one]
IC50 ([1]; given as IC50 range): 1 to 10 nM | IC50 [2]: 2.4 nM

CC(C)C[C@H](N)COc1ccc2c(c1)[nH]c(=O)c1cnccc12 [Example 1, (S)-8-(2-amino-4-methylpentyloxy)benzo[c][2,7]naphthyridin-5(6H)-one]
IC50 [1]: 5.7 nM | IC50 [2]: 14 nM

Cc1cc2c3ccnc(C)c3c(=O)n(C)c2cc1OC[C@@H](N)CC1CCC1 [Example 26, (S)-8-(2-amino-3-cyclobutylpropoxy)-4,6,9-trimethylbenzo[c][2,7]naphthyridin-5(6H)-one]
IC50 [1]: 2.9 nM | IC50 ([2]; given as IC50 range): 1 to 10 nM

Cc1nccc2c1c(=O)n(C)c1cc(OC[C@@H](N)CC(C)C)c(C(F)F)cc21 [Example 27, (S)-8-((2-amino-4-methylpentyl)oxy)-9-(difluoromethyl)-4,6-dimethylbenzo[c][2,7]naphthyridin-5(6H)-one]
IC50 [2]: 0.3 nM

Cc1cc2c3ccncc3c(=O)n(C)c2cc1OC[C@@H](N)CC(C)C [Example 4, (S)-8-((2-amino-4-methylpentyl)oxy)-6,9-dimethylbenzo[c][2,7]naphthyridin-5(6H)-one]
IC50 [2]: 2.4 nM

CC(C)C[C@H](N)COc1c(Cl)cc2c3ccncc3c(=O)n(C)c2c1Cl [Example 10, (S)-8-((2-amino-4-methylpentyl)oxy)-7,9-dichloro-6-methylbenzo[c][2,7]naphthyridin-5(6H)-one]
IC50 [2]: 29 nM

CC(C)C[C@H](N)COc1cc2c(cc1C#N)c1ccncc1c(=O)n2C [Example 5, (S)-8-((2-amino-4-methylpentyl)oxy)-6-methyl-5-oxo-5,6 dihydrobenzo[c][2,7]naphthyridine-9-carbonitrile]
IC50 [2]: 2.5 nM

CC(C)C[C@H](N)COc1cc2c(cc1Cl)c1ccncc1c(=O)n2C [Example 43, (S)-8-((2-amino-4-methylpentyl)oxy)-9-chloro-6-methylbenzo[c][2,7]naphthyridin-5(6H)-one]
IC50 [2]: 5 nM

CN[C@H](COc1ccc2c3ccncc3c(=O)n(C)c2c1)CC(C)C [Example 54, (S)-6-methyl-8-((4-methyl-2-(methylamino)pentyl)oxy)benzo[c][2,7]naphthyridin-5(6H)-one]
IC50 ([1]; given as IC50 range): 10 to 100 nM

Cc1cc2c(cn1)c(=O)n(C)c1cc(OC[C@@H](N)CC(C)C)c(Cl)cc21 [Example 68, (S)-8-((2-amino-4-methylpentyl)oxy)-9-chloro-2,6-dimethylbenzo[c][2,7]naphthyridin-5(6H)-one]
IC50 ([1]; given as IC50 range): 10 to 100 nM

Cc1cc2c(cn1)c(=O)n(C)c1cc(OC[C@@H](N)CC(C)C)c(Br)cc21 [Example 66]
IC50 ([1]; given as IC50 range): 100 to 2000 nM

Cc1nccc2c1c(=O)n(C)c1cc(OC[C@@H](N)CC(C)C)c(C(C)O)cc21 (single isomer, unassigned) [Example 30]
IC50 [1]: 1.7 nM

COCCn1c(=O)c2cnccc2c2ccc(OC[C@@H](N)CC(C)C)cc21 [Example 12, (S)-8-((2-amino-4-methylpentyl)oxy)-6-(2-methoxyethyl)benzo[c][2,7]naphthyridin-5(6H)-one]
IC50 [1]: 85 nM

Cc1nccc2c1c(=O)n(C)c1c(F)c(OCC(C)(N)CC(C)C)ccc21 (stereo not drawn) [Example 29, 8-((2-amino-2,4-dimethylpentyl)oxy)-7-fluoro-4,6-dimethylbenzo[c][2,7]naphthyridin-5(6H)-one]
IC50 ([1]; given as IC50 range): 100 to 2000 nM
